From PubChem BioAssay (NCI)
“And” between values parts separate entries of the source, which are not always exact repeats. Equal values may be shown once.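 The compound was tested at five concentrations on cells cultured in 96-well plates, with a 48-hour exposure period. GI50 marks 50% less growth. TGI: total growth inhibition.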

Tested on: OVCAR-8 ovarian
Assay: DTP human tumour cell line panel, 48 h

First: O=C(c1ccc(Cl)cc1Cl)N(C(=O)N1CCCCC1)c1ccccc1
Second: O=C1NC(Nc2cccc(Cl)c2)=N/C1=C\c1ccc(Cl)c(Cl)c1
The TGI of the first is higher: over 100 µM for the first, 16 µM for the second.

Going from `CSc1ccc(C2C(Cl)C(=O)N2NC(=O)c2c(Cl)c(Cl)c(Cl)c(Cl)c2-c2nc3ccccc3[nH]2)cc1` (centres undefined) to `CC(C)CC(N)C(=O)O` (centres undefined), the TGI rises from 59.9 µM to over 100 µM.

Tested on: HCT-15 colon
Assay: DTP human tumour cell line panel, 48 h

`N#CC1=C(N2CCCC2)NC(=O)CC1=O` and `O=C(c1ccc(Cl)cc1Cl)N(C(=O)N1CCCCC1)c1ccccc1` cannot be ordered by TGI: over 100 µM for the first, over 100 µM for the second.

`CC(C)(C)C1=CC(=CC=C2C=CN(CCCCCCCCCCCO)C=C2)C=C(C(C)(C)C)C1=O` and `CCCCCCCCCCC(O)C1CCC(C2CCC(C(O)CCCCC(O)CCCCCC(O)CC3=CC(C)OC3=O)O2)O1` (centres undefined) cannot be ordered by TGI: over 100 µM for the first, over 25 µM for the second.

Compared with `CSc1ccc(C2C(Cl)C(=O)N2NC(=O)c2c(Cl)c(Cl)c(Cl)c(Cl)c2-c2nc3ccccc3[nH]2)cc1` (centres undefined), `O=C1NC(Nc2cccc(Cl)c2)=N/C1=C\c1ccc(Cl)c(Cl)c1` is 3.2-fold lower in TGI: 60.4 µM for the first, 18.6 µM for the second.

Work on `CC(C)CC(N)C(=O)O` (centres undefined) yielded a TGI of over 100 µM.

Work on `CCCCCCCCCCC(O)C1CCC(C2CCC(C(O)CCCCC(O)CCCCCC(O)CC3=CC(C)OC3=O)O2)O1` (centres undefined) yielded a GI50 of 4.64 µM.

Tested on: M14 melanoma
Assay: DTP human tumour cell line panel, 48 h

`N#CC1=C(N2CCCC2)NC(=O)CC1=O` and `O=C(c1ccc(Cl)cc1Cl)N(C(=O)N1CCCCC1)c1ccccc1` cannot be ordered by TGI: over 100 µM for the first, over 100 µM for the second.

Compared with `CC(C)(C)C1=CC(=CC=C2C=CN(CCCCCCCCCCCO)C=C2)C=C(C(C)(C)C)C1=O`, `CCCCCCCCCCC(O)C1CCC(C2CCC(C(O)CCCCC(O)CCCCCC(O)CC3=CC(C)OC3=O)O2)O1` (centres undefined) is higher in TGI: 3.57 µM for the first, over 25 µM for the second.

First: CSc1ccc(C2C(Cl)C(=O)N2NC(=O)c2c(Cl)c(Cl)c(Cl)c(Cl)c2-c2nc3ccccc3[nH]2)cc1 (centres undefined)
Second: O=C1NC(Nc2cccc(Cl)c2)=N/C1=C\c1ccc(Cl)c(Cl)c1
The TGI of the first is 3.8-fold higher: 56.7 µM for the first, 14.9 µM for the second.

In the case of `CC(C)CC(N)C(=O)O` (centres undefined), the TGI is reported as over 100 µM.

With `CCCCCCCCCCC(O)C1CCC(C2CCC(C(O)CCCCC(O)CCCCCC(O)CC3=CC(C)OC3=O)O2)O1` (centres undefined) the GI50 was 3.76 µM.

Tested on: NCI-H226 lung
Assay: DTP human tumour cell line panel, 48 h

`N#CC1=C(N2CCCC2)NC(=O)CC1=O` and `O=C(c1ccc(Cl)cc1Cl)N(C(=O)N1CCCCC1)c1ccccc1` cannot be ordered by TGI: over 100 µM for the first, over 100 µM for the second.

Compared with `CSc1ccc(C2C(Cl)C(=O)N2NC(=O)c2c(Cl)c(Cl)c(Cl)c(Cl)c2-c2nc3ccccc3[nH]2)cc1` (centres undefined), `O=C1NC(Nc2cccc(Cl)c2)=N/C1=C\c1ccc(Cl)c(Cl)c1` is 2.2-fold lower in TGI: 38.5 µM for the first, 17.2 µM for the second.

`CC(C)CC(N)C(=O)O` (centres undefined) and `CCCCCCCCCCC(O)C1CCC(C2CCC(C(O)CCCCC(O)CCCCCC(O)CC3=CC(C)OC3=O)O2)O1` (centres undefined) cannot be ordered by TGI: over 100 µM for the first, over 25 µM for the second.

`CCCCCCCCCCC(O)C1CCC(C2CCC(C(O)CCCCC(O)CCCCCC(O)CC3=CC(C)OC3=O)O2)O1` (centres undefined) was tested, and the GI50 was over 25 µM.

Tested on: DU-145 prostate
Assay: DTP human tumour cell line panel, 48 h

`N#CC1=C(N2CCCC2)NC(=O)CC1=O` and `O=C(c1ccc(Cl)cc1Cl)N(C(=O)N1CCCCC1)c1ccccc1` cannot be ordered by TGI: over 100 µM for the first, over 100 µM for the second.

Going from `CC(C)(C)C1=CC(=CC=C2C=CN(CCCCCCCCCCCO)C=C2)C=C(C(C)(C)C)C1=O` to `CCCCCCCCCCC(O)C1CCC(C2CCC(C(O)CCCCC(O)CCCCCC(O)CC3=CC(C)OC3=O)O2)O1` (centres undefined), the TGI rises from 20.7 µM to over 25 µM.

First: CSc1ccc(C2C(Cl)C(=O)N2NC(=O)c2c(Cl)c(Cl)c(Cl)c(Cl)c2-c2nc3ccccc3[nH]2)cc1 (centres undefined)
Second: O=C1NC(Nc2cccc(Cl)c2)=N/C1=C\c1ccc(Cl)c(Cl)c1
The TGI of the first is 1.5-fold higher: 31.3 µM for the first, 20.6 µM for the second.

Work on `CC(C)CC(N)C(=O)O` (centres undefined) yielded a TGI of over 100 µM.

Work on `CCCCCCCCCCC(O)C1CCC(C2CCC(C(O)CCCCC(O)CCCCCC(O)CC3=CC(C)OC3=O)O2)O1` (centres undefined) yielded a GI50 of over 25 µM.

Tested on: SK-MEL-5 melanoma
Assay: DTP human tumour cell line panel, 48 h

`N#CC1=C(N2CCCC2)NC(=O)CC1=O` and `O=C(c1ccc(Cl)cc1Cl)N(C(=O)N1CCCCC1)c1ccccc1` cannot be ordered by TGI: over 100 µM for the first, over 100 µM for the second.

First: CC(C)(C)C1=CC(=CC=C2C=CN(CCCCCCCCCCCO)C=C2)C=C(C(C)(C)C)C1=O
Second: O=C1NC(Nc2cccc(Cl)c2)=N/C1=C\c1ccc(Cl)c(Cl)c1
The TGI of the first is 5.8-fold lower: 3.31 µM for the first, 19.1 µM for the second.

Compared with `CSc1ccc(C2C(Cl)C(=O)N2NC(=O)c2c(Cl)c(Cl)c(Cl)c(Cl)c2-c2nc3ccccc3[nH]2)cc1` (centres undefined), `CC(C)CC(N)C(=O)O` (centres undefined) is higher in TGI: 35.7 µM for the first, over 100 µM for the second.

`CCCCCCCCCCC(O)C1CCC(C2CCC(C(O)CCCCC(O)CCCCCC(O)CC3=CC(C)OC3=O)O2)O1` (centres undefined) gave a GI50 of 1.83 µM.

For `CCCCCCCCCCC(O)C1CCC(C2CCC(C(O)CCCCC(O)CCCCCC(O)CC3=CC(C)OC3=O)O2)O1` (centres undefined), the TGI was 7.33 µM and > 25 µM.

Tested on: SNB-75 CNS
Assay: DTP human tumour cell line panel, 48 h

Compared with `CC(C)(C)C1=CC(=CC=C2C=CN(CCCCCCCCCCCO)C=C2)C=C(C(C)(C)C)C1=O`, `CCCCCCCCCCC(O)C1CCC(C2CCC(C(O)CCCCC(O)CCCCCC(O)CC3=CC(C)OC3=O)O2)O1` (centres undefined) is higher in TGI: 5.4 µM for the first, over 25 µM for the second.

`CSc1ccc(C2C(Cl)C(=O)N2NC(=O)c2c(Cl)c(Cl)c(Cl)c(Cl)c2-c2nc3ccccc3[nH]2)cc1` (centres undefined) and `O=C1NC(Nc2cccc(Cl)c2)=N/C1=C\c1ccc(Cl)c(Cl)c1` are within 1.5-fold of each other in TGI: 35.4 µM for the first, 26.6 µM for the second.

With `CC(C)CC(N)C(=O)O` (centres undefined) the TGI was over 100 µM.

Compound `CCCCCCCCCCC(O)C1CCC(C2CCC(C(O)CCCCC(O)CCCCCC(O)CC3=CC(C)OC3=O)O2)O1` (centres undefined) has a GI50 of over 25 µM.

Tested on: 786-0 renal
Assay: DTP human tumour cell line panel, 48 h

`N#CC1=C(N2CCCC2)NC(=O)CC1=O` and `O=C(c1ccc(Cl)cc1Cl)N(C(=O)N1CCCCC1)c1ccccc1` cannot be ordered by TGI: over 100 µM for the first, over 100 µM for the second.

Compared with `CC(C)(C)C1=CC(=CC=C2C=CN(CCCCCCCCCCCO)C=C2)C=C(C(C)(C)C)C1=O`, `CSc1ccc(C2C(Cl)C(=O)N2NC(=O)c2c(Cl)c(Cl)c(Cl)c(Cl)c2-c2nc3ccccc3[nH]2)cc1` (centres undefined) is 19-fold higher in TGI: 3.94 µM for the first, 76.8 µM for the second.

`CC(C)CC(N)C(=O)O` (centres undefined) showed a TGI of over 100 µM.
